Results on 2 molecules are retold here after US20240238293A1, “COMBINED PHARMACEUTICAL PREPARATION FOR TREATING A TERMINAL NON-SMALL CELL LUNG CANCER PATIENT WITH BRAIN METASTASIS” (DELTA-FLY PHARMA, INC., priority 2020, published 2024).

“Also recorded” adds a separate entry of the source.

The nature of data set [1]: Phase II clinical trial of concurrent low-dose Ubenimex and low-dose Afatinib: adverse effects. It counts as in vivo, human patients. Conditions: within the combination (FIG. 2). The procedure:
To patients with non-small cell lung cancer having a mutation in the epidermal growth factor receptor (EGFR) gene, 10 mg/day of Ubenimex in a single dose unit (free form) and 20 mg/day of Afatinib (Giotrif®, dimaleate) in a single dose unit were administered in concurrently once a day until no antitumor effects would be exerted. The therapeutic effects and reduction of adverse effects were then inspected. […]

The conditions of data set [2]: Afatinib 40 mg/day alone; terminal (stage III to IV) NSCLC patients; 229 patients, phase III; cited from earlier work.

In the case of `CN(C)CC=CC(=O)Nc1cc2c(Nc3ccc(F)c(Cl)c3)ncnc2cc1O[C@H]1CCOC1` [Afatinib, N-[4-[(3-chloro-4-fluorophenyl)amino]-7-[[(3S)-tetrahydro-3-furanyl]oxy]-6-quinazolinyl]-4-(dimethylamino)-2-butenamide], the “adverse effects of Afatinib at about 20 mg/day, such as diarrhea or rashes” value in data set [1] (about 20 mg/day in a single dose unit) is recorded as “substantially no adverse effects”. Moreover, the “adverse effects, such as diarrhea and rashes” value in data set [2] is “likely to appear; also recorded: likely to be caused”. For the molecule `CC(C)C[C@H](NC(=O)[C@@H](O)[C@H](N)Cc1ccccc1)C(=O)O` [Ubenimex, (2S)-2-[(2S,3R)-3-amino-2-hydroxy-4-phenylbutanoylamino]-4-methylpentanoic acid], the “adverse effects of Ubenimex at about 10 mg/day” value in data set [1] (about 10 mg/day in a single dose unit) is “substantially no adverse effects”.
